Measurements taken from US9546153B2, “Bicyclic heterocycle substituted pyridyl compounds useful as kinase modulators” (BRISTOL-MYERS SQUIBB COMPANY, priority 2012, dated 2017).
Read-outs that look alike come from different tables or passages of the source.

Key:
[1] = system: TLR2 induced IL-6 in peripheral blood mononuclear cells (PBMCs); experiment: PBMC TLR2 Induced IL-6 Assay; assay type: cell-based, human; details: read-out: Cell IC50
Outline: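 Human PBMCs (250000 cells/well) in RPMI with 10% heat-inactivated FCS pre-treated with compound for 30 min at 37° C, then stimulated 5 h with 10 μg/ml lipoteichoic acid. Supernatant IL-6 measured by ELISA and reported as IC50 or EC50.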

[2] = target: IRAK4 (Homo sapiens (Human), UniProt Q9NWZ3); experiment: IRAK4 Inhibition Assay; assay type: biochemical; details: ATP 500 μM; IRAK4 0.6 nM; 60 min at room temperature
IRAK4, sequence (Q9NWZ3 whole entry, species assumed): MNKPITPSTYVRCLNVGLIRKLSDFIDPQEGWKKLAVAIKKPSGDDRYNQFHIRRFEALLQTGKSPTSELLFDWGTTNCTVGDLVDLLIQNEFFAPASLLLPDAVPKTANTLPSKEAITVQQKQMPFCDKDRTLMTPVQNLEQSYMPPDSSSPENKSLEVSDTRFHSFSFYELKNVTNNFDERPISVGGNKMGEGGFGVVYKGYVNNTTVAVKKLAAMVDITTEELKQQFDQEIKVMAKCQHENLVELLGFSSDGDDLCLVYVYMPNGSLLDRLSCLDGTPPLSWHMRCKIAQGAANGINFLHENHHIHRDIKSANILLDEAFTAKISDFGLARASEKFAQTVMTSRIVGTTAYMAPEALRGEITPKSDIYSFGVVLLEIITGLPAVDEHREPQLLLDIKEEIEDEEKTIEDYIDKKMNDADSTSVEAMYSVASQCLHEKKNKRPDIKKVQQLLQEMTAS
Protocol: The assays were performed in U-bottom 384-well plates. […] The reaction was initiated by the combination of IRAK4 with substrates and test compounds. The reaction was incubated at room temperature for 60 min. and terminated by adding 45 μL of 35 mM EDTA to each sample. The reaction mixture was analyzed on the Caliper LABCHIP® 3000 (Caliper, Hopkinton, Mass.) by electrophoretic separation of the fluorescent substrate and phosphorylated product.

[3] = Homo sapiens, PBMC, 5 h, human PBMCs, 10 μg/ml lipoteichoic acid for 5 hours, IL-6 by ELISA, value without asterisk
[4] = human PBMCs, 10 μg/ml lipoteichoic acid for 5 hours, IL-6 by ELISA, value without asterisk

Structure (SMILES) | IC50 [1, 3] [nM] | IC50 [2] [nM] | IC50 [1, 4] [nM] | IC50 ([1]; Homo sapiens, PBMC, 5 h) [nM]
CC(C)(O)[C@H](F)CNC(=O)c1cnc(Nc2ccc3ncoc3c2)cc1NCC(F)(F)F [Example 110] | 728 | 12.6 |  | 
CC(C)Nc1cc(Nc2ccc3nnccc3c2)ncc1C(=O)NC[C@@H](F)C(C)(C)O [Example 119] | 587 | 21.7 |  | 
CC(C)Nc1cc(Nc2cc(F)c3ncsc3c2)ncc1C(=O)NC[C@@H](F)C(C)(C)O [Example 120] | 459 | 5.9 |  | 
CC(C)(O)[C@H](F)CNC(=O)c1cnc(Nc2ccc3ncsc3c2)cc1NC1CC(F)(F)C1 [Example 121] | 345 | 2 |  | 
CC(C)(O)[C@H](F)CNC(=O)c1cnc(Nc2ccc3ncccc3n2)cc1NC1CC1 [Example 122] | 207 | 4.2 |  | 
CC(C)Nc1cc(Nc2ccc3ncccc3n2)ncc1C(=O)NC[C@@H](F)C(C)(C)O [Example 123] | 271 | 3.6 |  | 
COc1ncnc2ccc(Nc3cc(NC4CCOCC4)c(C(=O)NC[C@@H](F)C(C)(C)O)cn3)cc12 [Example 124] | 420 | 3.9 |  | 
CCNc1cc(Nc2ccc3ncnc(OC)c3c2)ncc1C(=O)NC[C@@H](F)C(C)(C)O [Example 125] | 779 | 13.4 |  | 
CC(C)(F)CNc1cc(Nc2ccc3ncsc3c2)ncc1C(=O)NC[C@@H](F)C(C)(C)O [Example 126] | 102 | 1.5 |  | 
CC(C)(F)CNc1cc(Nc2ccc3ncccc3c2)ncc1C(=O)NC[C@@H](F)C(C)(C)O [Example 127] | 472 | 4.1 |  | 
COc1ncnc2ccc(Nc3cc(NC4CC4)c(C(=O)NC[C@@H](F)C(C)(C)O)cn3)cc12 [Example 128] | 391 | 10.4 |  | 
CC(C)(O)[C@H](F)CNC(=O)c1cnc(Nc2ccc3ncsc3c2)cc1NCCC1CC1 [Example 129] | 143 | 2.6 |  | 
CC(C)Nc1cc(Nc2ccc3ncoc3c2)ncc1C(=O)NC[C@@H](F)C(C)(C)O [Example 130] | 231 | 2.6 |  | 
CC(C)(O)[C@H](F)CNC(=O)c1cnc(Nc2ccc3ncsc3c2)cc1NC12CCC(O)(CC1)C2 [Example 133] | 230 | 2 |  | 
CC(C)(F)CNc1cc(Nc2ccc3ncccc3n2)ncc1C(=O)NC[C@@H](F)C(C)(C)O [Example 134] | 447 | 8.8 |  | 
CCC(C)Nc1cc(Nc2ccc3ncsc3c2)ncc1C(=O)NC[C@@H](F)C(C)(C)O (stereo partly shown) [Example 137] | 528 | 3.6 |  | 
CCC(C)Nc1cc(Nc2ccc3ncsc3c2)ncc1C(=O)NC[C@@H](F)C(C)(C)O (stereo partly shown) [Example 138] |  | 1.9 | 302 | 
CC(=O)NC12CCC(Nc3cc(Nc4ccc5ncsc5c4)ncc3C(=O)NC[C@@H](F)C(C)(C)O)(CC1)C2 [Example 139] | 310 | 3.1 |  | 
CC(C)(O)[C@H](F)CNC(=O)c1cnc(Nc2ccc3ncsc3c2)cc1NC12CCC(N)(CC1)C2 [Example 140] | 219 | 2.3 |  | 
CC(C)(O)[C@H](F)CNC(=O)c1cnc(Nc2ccn3nccc3n2)cc1NC12CCC(O)(CC1)C2 [Example 141] | 279 | 2.2 |  | 

Structure (SMILES) | IC50 [1, 3] [nM] | IC50 [2] [nM] | IC50 [1, 4] [nM] | IC50 ([1]; Homo sapiens, PBMC, 5 h) [nM]
CCNC(=O)c1cnc(Nc2ccc3ncsc3c2)cc1N[C@@H](c1ccccc1)[C@H](O)CO [Example 144] | 199 | 7.4 |  | 
CN1CCCC1CCNC(=O)c1cnc(Nc2ccc3ncsc3c2)cc1NC1CCCC1 (stereo not shown) [Example 149] | 386 | 3.8 |  | 
O=C(NC[C@@H](F)CO)c1cnc(Nc2ccc3ncsc3c2)cc1NC1CCCC1 [Example 150] | 395 | 5.9 |  | 
O=C(NCCN1CCCC1)c1cnc(Nc2ccc3ncsc3c2)cc1NC1CCCC1 [Example 151] | 191 | 4.2 |  | 
CC(=O)NCCNC(=O)c1cnc(Nc2ccc3ncsc3c2)cc1NC1CCCC1 [Example 152] | 596 | 7.5 |  | 
O=C(NCCN1CCOCC1)c1cnc(Nc2ccc3ncsc3c2)cc1NC1CCCC1 [Example 154] | 535 | 6.8 |  | 
O=C(Nc1ccc(Cn2cncn2)cc1)c1cnc(Nc2ccc3ncsc3c2)cc1NC1CCCC1 [Example 156] | 502 | 9.9 |  | 
O=C(NC1CCC(O)CC1)c1cnc(Nc2ccc3ncsc3c2)cc1NC1CCCC1 (stereo not shown) [Example 157] | 836 | 4.2 |  | 
CCCNc1cc(Nc2ccc3ncsc3c2)ncc1C(=O)NC[C@@H](F)C(C)(C)O [Example 159] | 146 | 3.2 |  | 
CCCCNc1cc(Nc2ccc3ncsc3c2)ncc1C(=O)NC[C@@H](F)C(C)(C)O [Example 160] | 109 | 4.8 |  | 
CC(C)(O)[C@H](F)CNC(=O)c1cnc(Nc2ccc3ncsc3c2)cc1NCCO [Example 161] | 577 | 17.9 |  | 
CC(C)CNc1cc(Nc2ccc3ncsc3c2)ncc1C(=O)NC[C@@H](F)C(C)(C)O [Example 162] | 48 | 3.6 |  | 
CC(C)(O)[C@H](F)CNC(=O)c1cnc(Nc2ccc3ncsc3c2)cc1NCCN1CCOCC1 [Example 164] | 388 | 34.9 |  | 
CC(C)(O)[C@H](F)CNC(=O)c1cnc(Nc2ccc3ncsc3c2)cc1NCCc1ccccc1 [Example 165] | 386 | 9 |  | 
Cc1ccccc1CNc1cc(Nc2ccc3ncsc3c2)ncc1C(=O)NC[C@@H](F)C(C)(C)O [Example 166] | 266 | 8.4 |  | 
CC(C)(O)[C@H](F)CNC(=O)c1cnc(Nc2ccc3ncsc3c2)cc1NCc1ccc(Cl)cc1 [Example 167] | 526 | 9.8 |  | 
COc1ccc(CNc2cc(Nc3ccc4ncsc4c3)ncc2C(=O)NC[C@@H](F)C(C)(C)O)cc1 [Example 168] | 565 | 13.4 |  | 
CC1(O)CCC(NC(=O)c2cnc(Nc3ccc4ncsc4c3)cc2NC2CC2)CC1 (stereo not shown) [Example 169, 6-(benzo[d]thiazol-6-ylamino)-4-(cyclopropylamino)-N-(4-hydroxy-4-methylcyclohexyl)nicotinamide] | 480 | 2.8 |  | 
CC(C)(O)C(F)(F)CNC(=O)c1cnc(Nc2ccc3ncsc3c2)cc1NC1CC1 [Example 170] | 477 | 5.9 |  | 
CC(C)Nc1cc(Nc2ccc3ncsc3c2)ncc1C(=O)NCC(F)(F)C(C)(C)O [Example 171] | 571 | 4.3 |  | 

Structure (SMILES) | IC50 [1, 3] [nM] | IC50 [2] [nM] | IC50 [1, 4] [nM] | IC50 ([1]; Homo sapiens, PBMC, 5 h) [nM]
CC(C)Nc1cc(Nc2ccc3ncsc3c2)ncc1C(=O)NC1CCCC(CO)C1 (stereo not shown) [Example 172] |  | 6.7 | 300 | 
CC(C)Nc1cc(Nc2ccc3ncsc3c2)ncc1C(=O)NC1CCCC(CO)C1 (stereo not shown) [Example 173] |  | 9.3 | 696 | 
CC(C)Nc1cc(Nc2ccc3ncsc3c2)ncc1C(=O)NCC[C@@H](C)NC(=O)OC(C)(C)C [Example 175] | 402 | 5.1 |  | 
CC(C)Nc1cc(Nc2ccc3ncsc3c2)ncc1C(=O)NC12CCC(O)(CC1)C2 [Example 176] | 489 | 10.3 |  | 
CC(C)NC(=O)N[C@H](C)CCNC(=O)c1cnc(Nc2ccc3ncsc3c2)cc1NC(C)C [Example 177] | 191 | 1.7 |  | 
CC(=O)N[C@@H](C)CCNC(=O)c1cnc(Nc2ccc3ncsc3c2)cc1NC(C)C [Example 178] | 405 | 13.8 |  | 
CC(C)Nc1cc(Nc2ccc3ncsc3c2)ncc1C(=O)NCC[C@H](C)NC(=O)CC(C)(C)O [Example 179] | 532 | 16.2 |  | 
CC(=O)N[C@H](C)CCNC(=O)c1cnc(Nc2ccc3ncsc3c2)cc1NC(C)C [Example 180] | 415 | 3.7 |  | 
CC(C)NC(=O)N[C@@H](C)CCNC(=O)c1cnc(Nc2ccc3ncsc3c2)cc1NC(C)C [Example 181] | 453 | 7.6 |  | 
CC(C)Nc1cc(Nc2ccc3ncsc3c2)ncc1C(=O)NCC[C@@H](C)NC(=O)OC(C)C [Example 183] | 436 | 3.9 |  | 
CC(C)Nc1cc(Nc2ccc3ncsc3c2)ncc1C(=O)NCC[C@@H](C)NC(=O)C1CCCC1 [Example 184] |  | 1.9 |  | 215
CC(C)Nc1cc(Nc2ccc3ncsc3c2)ncc1C(=O)NCC[C@@H](C)NC(=O)c1ccccc1 [Example 185] | 620 | 4.4 |  | 
CC(C)Nc1cc(Nc2ccc3ncsc3c2)ncc1C(=O)NCC[C@@H](C)NC(=O)[C@@H]1CCC(F)(F)C1 [Example 186] | 361 | 2.4 |  | 
CC(C)Nc1cc(Nc2ccc3ncsc3c2)ncc1C(=O)NCC[C@@H](C)NC(=O)[C@@H]1CC[C@@H](F)C1 [Example 187] | 324 | 2.7 |  | 
CC(C)Nc1cc(Nc2ccc3ncsc3c2)ncc1C(=O)NCC[C@@H](C)NC(=O)CC1CCCCC1(F)F (stereo partly shown) [Example 188] | 508 | 2.5 |  | 
CC(C)Nc1cc(Nc2ccc3ncsc3c2)ncc1C(=O)NCC[C@@H](C)NC(=O)CC1CCOCC1 [Example 189] | 300 | 3.4 |  | 
CC(C)Nc1cc(Nc2ccc3ncsc3c2)ncc1C(=O)NCC[C@@H](C)NC(=O)CCCC(C)(C)O [Example 190] | 250 | 3.3 |  | 
CC(C)Nc1cc(Nc2ccc3ncsc3c2)ncc1C(=O)NCC[C@@H](C)NC(=O)CCCCC(C)(C)O [Example 191] | 451 | 3.4 |  | 
CC(C)Nc1cc(Nc2ccc3ncsc3c2)ncc1C(=O)NCC[C@@H](C)NC(=O)CN(C)C [Example 192] | 264 | 6.1 |  | 
